What all share (assay type): cell-based
The test system of experiment [1] is human fetal osteoblast cell line (ATCC, CRL-11372). Kind of experiment: Osteoblast adhesion on RNT-coated titanium. The note with it: coated on Ti, 4 h, FIG. 5. On the procedure: (§1) Titanium (Ti) (1 cm×1 cm×0.05 cm) (Alfa Aesar Ti foil) and glass coverslips were soaked in acetone for 15 min, sonicated for 15 min in acetone, and rinsed with dH2O. They were then soaked and sonicated in 70% ethanol and rinsed with dH2O. Lastly, they were soaked and sonicated in dH2O for another 15 min and rinsed. The glass was then etched in 1 M NaOH for 1 h and thoroughly rinsed in dH2O. All of the Ti and glass coverslips were oven-dried overnight and autoclaved for sterilization. The day before cell seeding, the cleaned Ti substrates were coated with the various RNTs (0.01 mg/mL) and KRSR peptide (0.01 mg/mL) solutions for 45 min at room temperature. They were then removed from the solutions and air-dried overnight. […]
(§2) Osteoblasts, fibroblasts and endothelial cells were seeded onto the substrates at a density of 3500 cells/cm^2 and were incubated in the cell culture medium (specifically, DMEM supplemented with FBS and P/S for osteoblasts, EMEM supplemented with FBS for fibroblasts and MCDB-131 complete medium for endothelial cells) for 4 h. […] The cell density was then determined by counting cells using Image Pro Analyzer. […]
(§3) Data are presented as the mean value±the standard error of the mean and were analyzed with a student's t-test to make pair-wise comparisons. […]

The subject of experiment [2] is rat skin fibroblast cell line (FR, ATCC, CRL-1213). Briefly: Fibroblast adhesion on RNT-coated titanium. The settings on record: 4 h, FIG. 7. On the procedure: as §1, §2, §3
Experiment [3] deals with Rat aortic endothelial cells (RAEC). Briefly: Endothelial cell adhesion on RNT-coated titanium. The settings on record: coated on Ti, 4 h, FIG. 9. On the procedure: as §1, §2, §3

Take “lysine-arginine-serine-argine (KRSR) [KRSR peptide]”: in experiment [1], the “osteoblast adhesion (in words)” value is listed as “promoted more osteoblast cell adhesion relative to uncoated Ti”. For the same substance, in experiment [2], the “fibroblast adhesion compared to uncoated Ti” value was “did not enhance fibroblast adhesion”. The “endothelial cell adhesion / density” value in experiment [3] is “did not enhance endothelial cell adhesion”.

The record behind these values is patent US8795691B2, “Nanotubes and compositions thereof” (Brown University, priority 2010, dated 2014).
